Test results from patent US20230172894A1, “COMBINATION TREATMENT FOR FUMARATE-RELATED DISEASES” (IMCYSE SA, priority 2020, published 2023).
Counter-ions that a name gives are not always drawn. Like-named read-outs stand apart in the source and are kept apart here.

Assays:
[1] = tested on: experimental auto-immune encephalomyelitis (EAE) development in mice; details: Example 3; for mice died in group: 16 mice per group
Source text: Example 3: Effect of the therapeutic administration of an immunogenic peptide comprising a MOG35-55 MHCII T cell epitope linked to a KCRC (SEQ ID NO: 65) or KCRPYC (SEQ ID NO: 84) oxidoreductase motif in combination with dimethyl fumarate (BG-12, […]™) on experimental auto-immune encephalomyelitis (EAE) development in mice.
The study used a total of 128 female C57BL/6 mice (Taconic Biosciences, 9 weeks old on Day 0). Mice were acclimated for 7 days prior to the first injection. Mice were assigned to groups in a balanced manner to achieve similar average weight across the groups at the start of the study.
Treatment 1 was administered once on each of the days indicated in Table 4, s.c., at a volume of 0.05 mL/site, each mouse receiving injection at two sites, for a total of 0.1 mL/mouse/dosing day. IMCY-0189 (CXXC oxidoreductase motif, IMCY-0453 (CXC oxidoreductase motif) or IMCY-0455 (CXXXC oxidoreductase motif) peptide total dose was 30 μg per administration.
(§1) BG-12 was dosed at 100 mg/kg.
(§2) All dosing were done at the same time (+/−1 hour) each dosing day. For the BID groups there were no less than 10 and no more than 14 hours between doses.
(§3) (SEQ ID NO: 266), comprising an oxidoreductase motif KCRC (SEQ ID NO: 65), a linker GW, a murine Myelin Oligodendrocyte Glycoprotein (MOG35-55) MHCII T cell epitope […] (SEQ ID NO: 169) and a flanking sequence HLYR (SEQ ID NO: 186) (Smart Bioscience) was solubilized immediately before use. Lyophilized IMCY-0453 was thawed at room temperature for 10 minutes, resuspended in Na Acetate buffer 50 mM NaCl 0.9% pH 5.4 and incubated at room temperature for 10 minutes. Reconstituted peptide was then mixed with Imject™ Alum Adjuvant before injection.
as §3, with “268),” for “266),”, “KCRPYC” for “KCRC”, “84),” for “65),”, “IMCY-0455” for “IMCY-0453”
(§4) Treatment 2 was prepared as described in example 2.
EAE induction, scoring and statistical analysis were performed as described in example
(§5) EAE development was evaluated by comparing clinical EAE readouts for all groups to the negative control (Saline/Vehicle) group.

[2] = tested on: experimental auto-immune encephalomyelitis (EAE) development in mice; assay: Example 4: serum neurofilament light (NF-L) levels in EAE mice; type: in vivo, female C57BL/6 mice; details: Day 28 serum, vs negative control
Procedure: On Day 28, blood was collected from all mice into gel clot activator tubes and allowed to clot at room temperature for ˜30 minutes. Blood is then centrifuged at ˜10000 g for 5 minutes. Serum was transferred into Eppendorf tubes and stored at −80° C. until shipment to Quanterix™. Serum Neurofilament light (NF-L) protein levels were quantified using Simoa® NF-light Advantage kit as described in example 1.
Serum neurofilaments levels were quantified as described in example 3.

[3] = tested on: experimental auto-immune encephalomyelitis (EAE) development in mice; details: Example 4; for mice died in group: 16 mice per group; for disease onset: peptide 30 μg/Alum s.c. days 4, 9, 14, 19, BG-12 100 mg/kg p.o. BID days 0 to 27; for disease onset / AUC (area under the curve) of EAE scores / MMS (mean maximal score) / end score (clinical EAE score 0-5): vs negative control, combinations also vs peptides only or BG-12 only
Source text: Example 4: Effect of the therapeutic administration of an immunogenic peptide comprising a human MOG201-212 MHCII T cell epitope linked to a KHCPYC oxidoreductase motif in combination with dimethyl fumarate (BG-12, […]™) on experimental auto-immune encephalomyelitis (EAE) development in mice.
The study used a total of 96 female C57BL/6 mice (Taconic Biosciences, 9 weeks old on Day 0). Mice were acclimated for 7 days prior to the first injection. Mice were assigned to groups in a balanced manner to achieve similar average weight across the groups at the start of the study.
Treatment 1 was administered once on each of the days indicated in Table 5, s.c., at a volume of 0.05 mL/site, each mouse receiving injection at two sites, for a total of 0.1 mL/mouse/dosing day. IMCY-0189 or P4 peptide total dose was 30 μg per administration.
as §1, §2
Lyophilized immunogenic peptide P4 with the sequence […] (SEQ ID NO: 176), comprising an oxidoreductase motif KHCPYC (SEQ ID NO: 77), a linker VRY, a human Myelin Oligodendrocyte Glycoprotein (MOG201-212) MHCII T cell epitope […] (SEQ ID NO: 165) and a flanking sequence TLFKK (SEQ ID NO: 267) (Smart Bioscience) was solubilized immediately before use. Lyophilized P4 was thawed at room temperature for 10 minutes, resuspended in Na Acetate buffer 50 mM NaCl 0.9% pH 5.4 and incubated at room temperature for 10 minutes. Reconstituted peptide was then mixed with Imject™ Alum Adjuvant before injection.
as §4
EAE induction, scoring and statistical analysis were performed as described in example 2.
as §5

[4] = tested on: experimental auto-immune encephalomyelitis (EAE) development in mice; assay: Example 1: spinal cord histology (H&E inflammatory foci, anti-MBP demyelination score) in EAE mice; type: in vivo, female C57BL/6 mice; details: vs negative control, combination also vs each single treatment
Procedure: At the end of the study, all mice were euthanized, and spines were collected and placed in 10% buffered formalin for histological analysis.
For each spine, one H&E stained slide and one anti-MBP stained slide were prepared and analyzed. Each slide contained a section with samples from lumbar, thoracic and cervical of spinal cord (3 samples). All analysis was performed by a pathologist blinded to the experimental groups and all clinical readouts.
Inflammatory foci of approximately 20 cells were counted in each H&E stained section. When inflammatory infiltrates consisted of more than 20 cells, an estimate was made of how many foci of 20 cells were present.
Demyelination was scored in each anti-MBP (using immunohistochemistry) stained section. In anti-MBP sections, demyelination is observed as conspicuous unstained areas in white matter tracts and is associated with presence of large vacuoles. The demyelination score represents an estimate of demyelinated area for each section as follows: […]

Compound	mice died in group [1]	serum NF-L levels [2]	mice died in group [3]	disease onset [3]	AUC (area under the curve) of EAE scores [3]	MMS (mean maximal score) [3]	end score (clinical EAE score 0-5) [3]	level of demyelination (anti-MBP stained sections, score 0-5) [4]	level of inflammation (inflammatory foci in H&E stained spinal cord sections) [4]	disease onset ([1]; peptide 30 μg/Alum s.c. days 4, 9, 14, 19, BG-12 100 mg/kg p.o. BID days 0 to 27, vs negative control)	AUC (area under the curve) of EAE scores ([1]; vs negative control)	MMS (mean maximal score) ([1]; vs negative control)	end score (clinical EAE score 0-5) ([1]; vs negative control)
HCPYCGWYRSPFSRVVHLYR [IMCY-0189]	No mice died	statistically significant reduced NF-L levels	No mice died	postponed disease onset	statistically significant reduced	statistically significant reduced	reduced end score	reduced level of both inflammation and demyelination, although not statistically significant	reduced level of both inflammation and demyelination, although not statistically significant				
COC(=O)/C=C/C(=O)OC [BG-12, dimethyl fumarate, reference compound]	No mice died	statistically significant reduced NF-L levels	No mice died	postponed disease onset	statistically significant reduced	statistically significant reduced	reduced end score		reduced level of inflammation, although not statistically significant	postponed disease onset	statistically significant reduced	statistically significant reduced	reduced end score
